Measurements: PubChem BioAssay (NCI)
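These data come from cells grown in 96-well plates and exposed to compound for 48 hours at five concentrations. The concentration for 50% growth inhibition is given as GI50. TGI is the concentration that stops growth completely.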

What was measured:
Assay in all cases: growth of human tumour cells (NCI), 48 h; in the data active means GI50 below about 0.43 µM; inactive means the rest
SK-OV-3 ovarian = system: SK-OV-3 ovarian
CAKI-1 renal = system: CAKI-1 renal
NCI-H460 lung = system: NCI-H460 lung
MDA-MB-435 = system: MDA-MB-435
RPMI-8226 leukemia = system: RPMI-8226 leukemia
KM12 colon = system: KM12 colon
MCF7 breast = system: MCF7 breast
MOLT-4 leukemia = system: MOLT-4 leukemia
NCI-H522 lung = system: NCI-H522 lung
T-47D breast = system: T-47D breast
HCT-15 colon = system: HCT-15 colon
SW-620 colon = system: SW-620 colon
HCC-2998 colon = system: HCC-2998 colon
CCRF-CEM leukemia = system: CCRF-CEM leukemia
NCI-H23 lung = system: NCI-H23 lung
NCI-H226 lung = system: NCI-H226 lung
HCT-116 colon = system: HCT-116 colon
SK-MEL-2 melanoma = system: SK-MEL-2 melanoma
M14 melanoma = system: M14 melanoma
HOP-62 NSCLC = system: HOP-62 NSCLC
SN12C renal = system: SN12C renal
A549 NSCLC = system: A549 NSCLC
MDA-MB-231 breast = system: MDA-MB-231 breast
786-0 renal = system: 786-0 renal
ACHN renal = system: ACHN renal
HS 578T breast = system: HS 578T breast
HT29 colon = system: HT29 colon
OVCAR-8 ovarian = system: OVCAR-8 ovarian
SNB-19 CNS = system: SNB-19 CNS
SF-539 CNS = system: SF-539 CNS
LOX IMVI melanoma = system: LOX IMVI melanoma
SNB-75 CNS = system: SNB-75 CNS
COLO 205 colon = system: COLO 205 colon
EKVX NSCLC = system: EKVX NSCLC
SK-MEL-5 melanoma = system: SK-MEL-5 melanoma
SF-268 CNS = system: SF-268 CNS
UO-31 renal = system: UO-31 renal
UACC-62 melanoma = system: UACC-62 melanoma
SK-MEL-28 melanoma = system: SK-MEL-28 melanoma
HL-60(TB) leukemia = system: HL-60(TB) leukemia
SR leukemia = system: SR leukemia
HOP-92 NSCLC = system: HOP-92 NSCLC
SF-295 CNS = system: SF-295 CNS
PC-3 prostate = system: PC-3 prostate
OVCAR-4 ovarian = system: OVCAR-4 ovarian
DU-145 prostate = system: DU-145 prostate
K-562 leukemia = system: K-562 leukemia
MALME-3M melanoma = system: MALME-3M melanoma
NCI/ADR-RES ovarian = system: NCI/ADR-RES ovarian
UACC-257 melanoma = system: UACC-257 melanoma
BT-549 breast = system: BT-549 breast
U251 CNS = system: U251 CNS
A498 renal = system: A498 renal
OVCAR-3 ovarian = system: OVCAR-3 ovarian
RXF 393 renal = system: RXF 393 renal
IGROV1 ovarian = system: IGROV1 ovarian
TK-10 renal = system: TK-10 renal
OVCAR-5 ovarian = system: OVCAR-5 ovarian

O=C1/C=C/[C@@H](O)[C@@H]2C[C@@H](O)C[C@H]2/C=C/CCC[C@H](CCOCc2ccccc2)O1
> 43.7 µM: TGI (MOLT-4 leukemia)
0.714 µM: TGI (NCI-H23 lung)
12.9 µM: TGI (HCT-15 colon)
20.6 µM: TGI (RPMI-8226 leukemia)
0.0227 µM: TGI (SK-MEL-5 melanoma)
0.123 µM: TGI (A498 renal)
12.6 µM: TGI (UACC-62 melanoma)
0.187 µM: TGI (OVCAR-3 ovarian)
> 100 µM: TGI (SK-OV-3 ovarian) | TGI (CAKI-1 renal) | TGI (NCI-H460 lung) | TGI (MDA-MB-435) | TGI (CCRF-CEM leukemia) | TGI (HOP-62 NSCLC) | TGI (SN12C renal) | TGI (A549 NSCLC) | TGI (ACHN renal) | TGI (HS 578T breast) | TGI (SNB-19 CNS) | TGI (SF-539 CNS) | TGI (EKVX NSCLC) | TGI (SF-268 CNS) | TGI (SF-295 CNS) | TGI (PC-3 prostate) | TGI (DU-145 prostate) | TGI (K-562 leukemia) | TGI (U251 CNS) | TGI (OVCAR-5 ovarian)
0.649 µM: TGI (SK-MEL-2 melanoma)
0.031 µM: TGI (KM12 colon)
0.428 µM: TGI (MALME-3M melanoma)
> 95.4 µM: TGI (SNB-75 CNS)
0.0809 µM: TGI (COLO 205 colon)
0.0537 µM: TGI (786-0 renal)
0.0849 µM: TGI (SK-MEL-28 melanoma)
3.31 µM: TGI (HL-60(TB) leukemia)
active: GI50 (SK-OV-3 ovarian) 0.0481 µM | GI50 (CAKI-1 renal) 0.331 µM | GI50 (NCI-H460 lung) 0.38 µM | GI50 (MDA-MB-435) 0.0539 µM | GI50 (RPMI-8226 leukemia) 0.297 µM | GI50 (MCF7 breast) 0.0399 µM | GI50 (MOLT-4 leukemia) 0.305 µM | GI50 (NCI-H522 lung) 0.234 µM | GI50 (T-47D breast) 0.192 µM | GI50 (HCT-15 colon) 0.29 µM | GI50 (SW-620 colon) 0.0994 µM | GI50 (HCC-2998 colon) 0.11 µM | GI50 (CCRF-CEM leukemia) 0.301 µM | GI50 (NCI-H23 lung) 0.105 µM | GI50 (NCI-H226 lung) 0.0188 µM | GI50 (HCT-116 colon) 0.162 µM | GI50 (SK-MEL-2 melanoma) 0.172 µM | GI50 (M14 melanoma) 0.0403 µM | GI50 (HOP-62 NSCLC) 0.0738 µM | GI50 (SN12C renal) 0.272 µM | GI50 (A549 NSCLC) 0.066 µM | GI50 (MDA-MB-231 breast) 0.102 µM | GI50 (786-0 renal) 0.0223 µM | GI50 (ACHN renal) 0.317 µM | GI50 (HS 578T breast) < 0.0226 µM | GI50 (HT29 colon) 0.0274 µM | GI50 (OVCAR-8 ovarian) 0.0523 µM | GI50 (SNB-19 CNS) 0.138 µM | GI50 (SF-539 CNS) 0.112 µM | GI50 (LOX IMVI melanoma) 0.0352 µM | GI50 (SNB-75 CNS) < 0.0277 µM | GI50 (COLO 205 colon) 0.0292 µM | GI50 (EKVX NSCLC) 0.141 µM | GI50 (SK-MEL-5 melanoma) < 0.0134 µM | GI50 (SF-268 CNS) 0.0376 µM | GI50 (UO-31 renal) 0.0701 µM | GI50 (UACC-62 melanoma) 0.0372 µM | GI50 (SK-MEL-28 melanoma) < 0.017 µM | GI50 (HL-60(TB) leukemia) 0.282 µM | GI50 (SR leukemia) 0.142 µM | GI50 (HOP-92 NSCLC) 0.234 µM | GI50 (SF-295 CNS) 0.051 µM | GI50 (PC-3 prostate) 0.164 µM | GI50 (OVCAR-4 ovarian) 0.0643 µM | GI50 (DU-145 prostate) 0.412 µM | GI50 (K-562 leukemia) 0.327 µM | GI50 (MALME-3M melanoma) 0.0365 µM | GI50 (NCI/ADR-RES ovarian) 0.0469 µM | GI50 (UACC-257 melanoma) 0.0161 µM | GI50 (BT-549 breast) 0.117 µM | GI50 (U251 CNS) 0.0978 µM | GI50 (A498 renal) 0.0178 µM | GI50 (OVCAR-3 ovarian) 0.039 µM | GI50 (RXF 393 renal) < 0.0139 µM | GI50 (IGROV1 ovarian) 0.335 µM | GI50 (TK-10 renal) 0.186 µM | GI50 (OVCAR-5 ovarian) 0.246 µM
5.27 µM: TGI (NCI/ADR-RES ovarian)
> 21.9 µM: TGI (BT-549 breast)
0.556 µM: TGI (T-47D breast)
0.822 µM: TGI (SW-620 colon)
0.251 µM: TGI (NCI-H226 lung)
0.267 µM: TGI (MDA-MB-231 breast)
0.168 µM: TGI (LOX IMVI melanoma)
2.32 µM: TGI (UACC-257 melanoma)
0.658 µM: TGI (TK-10 renal)
26.6 µM: TGI (UO-31 renal)
> 26.3 µM: TGI (IGROV1 ovarian)
0.0436 µM: TGI (RXF 393 renal)
0.212 µM: TGI (HT29 colon)
0.177 µM: TGI (MCF7 breast)
> 41.2 µM: TGI (OVCAR-4 ovarian)
0.577 µM: TGI (NCI-H522 lung)
0.909 µM: TGI (HOP-92 NSCLC)
0.379 µM: TGI (HCT-116 colon)
13.2 µM: TGI (M14 melanoma)
